Results reported in PMC3578829, “A Small Molecule (Pluripotin) as a Tool for Studying Cancer Stem Cell Biology: Proof of Concept” (PLoS ONE, 2013).
“Also recorded” adds a separate entry of the source.

How the values were obtained:
COLO 205 = assay: Soft agar cloning assay; format: cell-based; conditions: 1.25 µM SL0101 for 24 hrs prior to cloning, evaluated 7 days later, all plating densities
Method: The soft agar colony formation assay has been previously described. In brief, for each treatment condition, triplicate 35 mm^2 dishes were coated with a 1 ml base layer containing 0.7% agarose (Seaplaque: FMC Corp., Rockland, ME). On day 0, cells were dissociated, washed once in growth medium, and subcultured by layering various cell concentrations in 0.5 ml culture medium containing 0.3% agarose onto the base coat. Culture dishes were transferred to a refrigerator (4°C) for 15 min, to room temperature for 10 min, and then to culture incubators. An upper layer of 0.5 ml culture medium was applied on day 0. Cultures were stained with MTT (1 mg/ml) for visualization and imaging at multiple time intervals (day 7 and 14). Cumulative counts of colonies (diameters, >60 µm) and cumulative volumes of CFU (diameters >120 µm) were determined with an Omnicon FAS-II (Bausch & Lomb, Rochester, NY) following calibration with an Omnicon test plate 3 and polystyrene microspheres embedded in soft agar matrix. The evaluable region of each culture dish (35 contiguous fields equivalent to 51% of the cell layer culture volume) was analyzed. Selective scoring of viable cell groups was achieved by adjustment of the instrument detection threshold to exclude images of nonstained cellular material and debris. The data was analyzed with Lotus Symphony software.

MEK = conditions: cited from earlier work
Raf = conditions: cited from earlier work
PKC = conditions: cited from earlier work

## CC(=O)O[C@@H]1[C@@H](OC(C)=O)[C@@H](O)[C@H](Oc2c(-c3ccc(O)cc3)oc3cc(O)cc(O)c3c2=O)O[C@H]1C [SL0101]
COLO 205
  Colony formation (≥60 µm) in soft agar vs control: increased colony formation; also recorded: Statistically significant increases in colony formation
MEK
  Activity against MEK: no activity
Raf
  Activity against Raf: no activity
PKC
  Activity against PKC: no activity
